Laboratory results reported in ChEMBL document CHEMBL3045077, “Intravenous pharmacokinetics and oral bioavailability of biochanin A in female rats” (Med Chem Res, 2011).

Key:
Type in all cases: ADME, organism-based
[1] = Total clearance in Rattus norvegicus Sprague-Dawley (rat) at 5 mg/kg, iv; parameters: dose 5 mg/kg, route intravenous; conditions: in vivo
[2] = Apparent elimination half life in Rattus norvegicus Sprague-Dawley (rat) at 5 mg/kg, iv; parameters: dose 5 mg/kg, route intravenous; conditions: in vivo, read-out: betat1/2(app) (converted)
[3] = Apparent elimination half life in Rattus norvegicus Sprague-Dawley (rat) at 50 mg/kg, po; parameters: dose 50 mg/kg, route oral; conditions: in vivo, read-out: betat1/2(app) (converted)
[4] = Apparent volume of distribution in Rattus norvegicus Sprague-Dawley (rat) at 5 mg/kg, iv; parameters: dose 5 mg/kg, route intravenous; conditions: in vivo, read-out: Vd(app)

`COc1ccc(-c2coc3cc(O)cc(O)c3c2=O)cc1` [BIOCHANIN] showed a clearance [1] of 262 mL/min/kg, a half-life [2] of 1 h and a half-life [3] of 13.7 h. For the same molecule, the Vd [4] was 10.6 L/kg.
